Measured values: US20170021014A1, “VACCINE ADJUVANTS FOR CYTOMEGALOVIRUS PREVENTION AND TREATMENT” (THE JOHNS HOPKINS UNIVERSITY, priority 2015, published 2017)

What was measured:
[1] = system: pp28-luciferase Towne strain; assay: pp28-luciferase HCMV replication assay (first and second cycle); assay type: cell-based, human cytomegalovirus
Procedure: Human Foreskin Fibroblasts (HFFs) passage 12-16 (ATCC, CRL-2088™) were grown in Dulbecco's Modified Eagle Medium (DMEM) containing 10% fetal bovine serum (FBS) (Gibco, Carlsbad, Calif.) in a 5% CO2 incubator at 37° C. The generation of NOD2-KD HFFs (HFF-shNOD2) and control cells (HFF-GIPZ) was reported. One day prior to infection or treatment, 8×10^4 cells were seeded into each well of 12-well tissue culture plates. Multiplicities of infection were specified for each experiment. The Towne HCMV strain was obtained from ATCC (VR-977). The pp28-luciferase Towne strain which expresses luciferase under the control of the pp28 late promoter has been described. Luciferase activity was measured at 72 or 96 hours post infection (hpi) using the Glomax-Multi+ Detection System (Promega, Madison, Wis.). In second cycle replication assays cell free supernatants from HFFs infected with pp28-luciferase Towne were collected 4 days post completion of first replication cycle (5-10% of total volume/well), and used for infection of fresh HFFs seeded into 12-well plates. Cell lysates were collected after 72 h for luciferase activity. Supernatants from the first cycle were also used to measure virus titer in 12-well plates and plaques were counted at day 8 post infection. A purified preparation of the pp28-luciferase Towne strain was prepared by ultracentrifugation using sucrose gradient. The HCMV TB40 strain was obtained from ATCC (VR-1578). Clinical isolates of HCMV were obtained from the microbiology laboratory at Johns Hopkins Hospital with no identifiers that could be linked to a patient. The Johns Hopkins School of Medicine Office of Human Subject Research Institutional Review Board (IRB-X) determined that the research qualified for an exemption.

[2] = system: HIV-1; conditions: acutely infected monocyte-derived macrophages and dendritic cells; cited from earlier work
[3] = system: MCMV (Smith strain); assay: MCMV infection of BALB/c mice; assay type: in vivo, mouse; conditions: after infection, 10 mg/kg twice daily for 5 days
Procedure: Animal work was carried out in strict accordance with the recommendations in the Guide for the Care and Use of Laboratory Animals of the National Institutes of Health. The animal protocol (number MO13M296) was approved by the Institutional Animal Care and Use Committee (IACUC) of Johns Hopkins University. For infection experiments 3-4 week old BALB/c mice were purchased from Harlan Laboratories (Indianapolis, Ind.). […] IMMUNOL. 980-86 (2011)) or saline intraperitoneally. Blood was collected 4 h after the second dose of iE-DAP for measurement of RANTES by ELISA (R&D Biosystems, Minneapolis, Minn.). Mice were infected with 10^6 PFU tissue culture derived MCMV (Smith strain, ATCC, VR-1399) and scarified after 14 days. Intracardiac blood was collected prior to sacrifice for gB real-time PCR assay (Vliegen et al., 98(1) VIRUS RES. 17-25 (2003)). Salivary glands, liver and spleen were harvested and stored at −80° C. Organs were homogenized in DMEM at a final concentration of 100 mg/mL Two million mouse embryonic fibroblast (MEFs) were seeded into 24-well plates. From each sample, 2.5% of the salivary gland or 10% of liver/spleen homogenate was used for infection of MEFs in triplicates. Plaques were counted after three days.
At 14 days' post infection mice were scarified, intracardiac blood was collected and tissue homogenates were prepared for plaque assays.

**Q.** With `C[C@H](N)C(=O)N[C@H](CCC(=O)NC(CCCC(N)C(=O)O)C(=O)O)C(=O)O` (stereo partly drawn) [Tri-DAP, L-Ala-γ-D-Glu-meso-diamino-pimelic acid] as the compound, how does the “CMV inhibition (luciferase, protein expression, plaques)” value ([1]; Tri-DAP 10 μg/mL after infection, 72 hpi) read?
**A.** Its value is “results in CMV inhibition”.

**Q.** What about the CMV replication ([1]; Tri-DAP 10 μg/mL pretreatment 18 or 72 h, MOI 1) of the same compound?
**A.** Its CMV replication is “inhibits CMV replication”.

**Q.** For `CCCCOC(=O)[C@@H](CCC(N)=O)NC(=O)[C@H](C)NC(=O)[C@@H](C)O[C@H]1[C@H](O)[C@@H](CO)OC(O)[C@@H]1NC(C)=O` (stereo partly shown) [MB, murabutide], which HIV-1 replication [2] is on record?
**A.** Its HIV-1 replication is “significantly inhibits HIV-1 replication”.

**Q.** Which MCMV inhibition [3] does the source give for `Nc1nc(O)c2ncn(COC(CO)CO)c2n1` [Ganciclovir] here?
**A.** Its MCMV inhibition is “inhibited MCMV”.
